Results published in EP3785696A1, “COSMETIC USE OF AROMATIC FORMAMIDINE DERIVATIVES” (B.R.A.I.N. Biotechnology Research And Information Network AG, priority 2019, dated 2021).

Experiments:
Format in all cases: cell-based
[1] = biological target: T1, MC4-R (Homo sapiens, UniProt P32245); test: Determination of compound activity on MC4-R (antagonist testing, Fluo-4 Ca2+ fluorescence in HEK293/Gα15 cells); details: Figure 2; 25 µM, added 10 min prior stimulation with αMSH (EC80)
T1 construct: MC4-R cDNA expression results in MC4-R protein NP_005903.2; expressed in transfected cells; host or cells: HEK293/Gα15 cells
Excerpt: (§1) HEK293 cells stably expressing the target receptor MC4-R and the promiscuous murine Gα15 protein were established on basis of the above-mentioned HEK293/Gα15 cell line. These cells were further transfected with an expression vector comprising the human MC4-receptor cDNA. MC4-R cDNA expression results in MC4-R protein NP_005903.2.
(§2) Stimulation of MC4-R with αMSH increases intracellular Ca^2+-concentration, inhibition of MC4-R decreases these αMSH induced Ca^2+-responses. Changes in intracellular Ca^2+-levels were measured via the Ca^2+-sensitive fluorescent dye Fluo-4 in a fluorescent plate reader.
(§3) For antagonist-testing, test compound was added to cells with a final concentration of 25 µM 10 min prior stimulation with αMSH (using EC80). The threshold for antagonistic activity was defined as 70% of the positive control αMSH (the EC80 value is set as 100%), and the assay was accepted as valid if the standard deviation of the αMSH signal is 10% or less.

[2] = biological target: T2, MC3-R (Homo sapiens, UniProt P41968); test: Determination of compound activity on MC3-R (antagonist testing, Fluo-4 Ca2+ fluorescence in HEK293/Gα15 cells); details: Figure 2; 25 µM, added 10 min prior stimulation with αMSH (EC80)
T2 construct: MC3-R cDNA expression results in MC3-R protein NP_063941.3; expressed in transfected cells; host or cells: HEK293/Gα15 cells
Excerpt: as §1, with “MC3-R” for “MC4-R”, “MC3-receptor” for “MC4-receptor”, “NP_063941.3.” for “NP_005903.2.”
Stimulation of MC3-R with αMSH increases intracellular Ca^2+-concentration, inhibition of MC3-R decreases these αMSH induced Ca^2+-responses. Changes in intracellular Ca^2+-levels were measured via the Ca^2+-sensitive fluorescent dye Fluo-4 in a fluorescent plate reader.
as §3

[3] = biological target: T3, MC1-R (Homo sapiens, UniProt Q01726, A105V); test: Determination of compound activity on MC1-R (antagonist testing, Fluo-4 Ca2+ fluorescence in HEK293/Gα15/MC1-R cells); details: 25 µM
T3 construct: MC1-R cDNA expression results in the corresponding protein (NP_002377.4); expressed in transfected cells
T3 sequence (Q01726 1-317 A105V): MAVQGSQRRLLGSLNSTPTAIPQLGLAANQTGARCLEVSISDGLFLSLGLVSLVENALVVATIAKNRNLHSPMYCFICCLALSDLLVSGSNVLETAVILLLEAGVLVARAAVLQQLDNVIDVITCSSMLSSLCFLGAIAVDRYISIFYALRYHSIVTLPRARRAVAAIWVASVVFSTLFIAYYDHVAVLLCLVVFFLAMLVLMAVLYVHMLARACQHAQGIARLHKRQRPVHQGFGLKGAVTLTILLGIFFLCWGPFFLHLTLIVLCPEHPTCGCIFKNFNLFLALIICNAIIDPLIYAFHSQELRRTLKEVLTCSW
Excerpt: A MC1-R expressing cell line for assessing melanogenesis modulating activity was established based on engineered HEK 293 cells, stably expressing the murine G-protein Gα15 (NM_010304.3). The promiscuous Gα15 protein couples to MC1-R and therefore links receptor stimulation to Ca^2+-signaling.
To achieve a stable expression of the target receptor this HEK293/Gα15 cell line was further stably transfected with an expression vector for the human MC1-R receptor. MC1-R cDNA expression results in the corresponding protein (NP_002377.4 with an amino acid replacement at position 105 (A105V)).
HEK293 cells stably expressing the target receptor MC1-R and the promiscuous murine Gα15 protein (HEK293/Gα15/MC1-R) were established as described above. […] Changes in internal Ca^2+-concentration are measured via the Ca^2+-sensitive fluorescent dye Fluo-4 (2-{[2-(2-{5-[bis(carboxymethyl)amino]-2-methyl-phenoxy}ethoxy)-4-(2,7-difluoro-6-hydroxy-3-oxo-3H-xanthen-9-yl)phenyl](carboxymethyl)amino}acetic acid) in a fluorescence plate reader (FLEX-Station, Molecular Devices) at an excitation wavelength of 488nm and emission of 535nm.
Recombinant HEK293/Gα15/MC1-R cells were cultured in DMEM with 10% FBS, 2mM glutamine, 1,3 mg/ml geneticin and 5 µg/ml blasticidin. Cells were seeded in 96 well, poly-D-lysine coated, black well/ clear bottom fluorescence plates in medium without antibiotics. […]

[4] = biological target: T4, MC2-R (Homo sapiens, UniProt Q01718); test: Determination of compound activity on MC2-R (antagonist testing, Fluo-4 Ca2+ fluorescence in HEK293/Gα15 cells with MC2-R and MRAP); details: Figure 2; 25 µM, added 10 min prior addition of ACTH (EC80)
T4 construct: MC2-R cDNA expression results in MC2-R protein NP_000520.1; expressed in transfected cells; host or cells: HEK293/Gα15 cells
Excerpt: HEK293 cells stably expressing the target receptor MC2-R, the accessory protein MRAP and the promiscuous murine Gα15 protein were established on basis of the above-mentioned HEK293/Gα15 cell line. These cells were further transfected with an expression vector comprising human MC2-receptor and additional MRAP (MC2-Receptor Accessory Protein) cDNA. MC2-R cDNA expression results in MC2-R protein NP_000520.1, MRAP cDNA expression results in MRAP protein NP_848932.1.
as §2, with “of MC2-R” for “of MC4-R”, “with ACTH (adrenocorticotropic hormone)” for “with αMSH”, “these ACTH” for “these αMSH”
as §3, with “addition of ACTH (EC80).” for “stimulation with αMSH (using EC80).”, “defined in this experiment” for “defined”, “ACTH” for “αMSH”

[5] = tested on: MelanoDerm™ (Mattek Corp.) tissues; test: MelanoDerm™ assay: melanin content in reconstructed skin tissues; details: 336 h, 14 days of treatment, melanin content normalized on protein content, read-out: % inhibition relative to negative control
Protocol: Phenotypic skin lightening was assessed in reconstructed skin using MelanoDerm™ (Mattek Corp.) tissues (Figure 1).
Controls were: negative control (ultrapure water) and positive control (10 µM Ketoconazol). Test compounds were prepared in DMSO with a concentration of 10 mM and diluted in EPI-100-LLM medium (Mattek Corp.) to a final concentration of 25 µM.
MelanoDerm™ tissues were equilibrated in pre-warmed EPI-100-LLMM medium (6-Well plates, 5 ml per well) for 1 h (37°C, 5 % CO2) before treatment. Test compounds were applied systemically by addition into the culture medium. […] At the end of the treatment, tissues were analyzed via macroscopic/microscopic images and in vitro assay, for viability and for melanin content. […] Cytotoxicity was assessed using microscopic tissue images (10× magnification). Tissue viability as a result of test compound relative to negative control was determined using Cell Proliferation Reagent WST-1 (cat# 05015944001, Roche). For melanin quantitation tissues were submerged for 5 min in phosphate buffered saline (PBS, 5 ml), removed from PBS and rinsed with additional 2 ml PBS. […] All incubated samples were centrifuged at 13,000 rpm for 5 min and the optical density of the supernatant (200 µl) was measured at 490 nm. The amount of melanin (µg) from each tissue sample was determined using the melanin standard samples calibration curve. […]

[6] = biological target: T5, MC5-R (Homo sapiens, UniProt P33032); test: Determination of compound activity on MC5-R (antagonist testing, Fluo-4 Ca2+ fluorescence in HEK293/Gα15 cells); details: Figure 2; 25 µM, added 10 min prior stimulation with αMSH (EC80)
T5 construct: MC5-R cDNA expression results in MC5-R protein NP_005904.1; expressed in transfected cells; host or cells: HEK293/Gα15 cells
Excerpt: HEK293 cells stably expressing the target receptor MC5-R and the promiscuous murine Gα15 protein were established on the basis of the above-mentioned HEK293/Gα15 cell line. These cells were further transfected with an expression vector comprising the human MC5-receptor cDNA. MC5-R cDNA expression results in MC5-R protein NP_005904.1.
Stimulation of MC5-R with αMSH increases intracellular Ca^2+-concentration, inhibition of MC5-R decreases these αMSH induced Ca^2+-responses. Changes in intracellular Ca^2+-levels were measured via the Ca^2+-sensitive fluorescent dye Fluo-4 in a fluorescent plate reader.
as §3

T4 sequence (Q01718 whole entry): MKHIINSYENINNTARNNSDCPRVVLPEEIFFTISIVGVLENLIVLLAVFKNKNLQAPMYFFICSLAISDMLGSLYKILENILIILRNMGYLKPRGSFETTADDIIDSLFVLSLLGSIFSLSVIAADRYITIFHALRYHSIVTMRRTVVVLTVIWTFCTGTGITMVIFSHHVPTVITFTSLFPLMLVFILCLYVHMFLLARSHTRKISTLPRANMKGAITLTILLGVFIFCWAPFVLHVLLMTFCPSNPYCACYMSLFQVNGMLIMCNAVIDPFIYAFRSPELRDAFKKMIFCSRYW
T4 sequence (Q8TCY5 whole entry partner): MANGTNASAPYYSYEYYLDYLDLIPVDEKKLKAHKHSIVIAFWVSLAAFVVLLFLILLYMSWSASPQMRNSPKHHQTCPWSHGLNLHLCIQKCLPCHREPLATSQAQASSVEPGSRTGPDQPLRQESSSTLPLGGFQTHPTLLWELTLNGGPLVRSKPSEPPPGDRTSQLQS
T5 sequence (P33032 whole entry): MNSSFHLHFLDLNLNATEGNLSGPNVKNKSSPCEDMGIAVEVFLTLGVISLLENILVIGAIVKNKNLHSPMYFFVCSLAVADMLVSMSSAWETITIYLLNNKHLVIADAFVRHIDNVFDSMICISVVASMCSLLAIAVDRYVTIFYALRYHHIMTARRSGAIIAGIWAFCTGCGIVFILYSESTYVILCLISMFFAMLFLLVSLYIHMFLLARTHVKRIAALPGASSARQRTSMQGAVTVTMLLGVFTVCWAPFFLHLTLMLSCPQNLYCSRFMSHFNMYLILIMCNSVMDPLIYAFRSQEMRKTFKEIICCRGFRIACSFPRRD
T1 sequence (P32245 whole entry): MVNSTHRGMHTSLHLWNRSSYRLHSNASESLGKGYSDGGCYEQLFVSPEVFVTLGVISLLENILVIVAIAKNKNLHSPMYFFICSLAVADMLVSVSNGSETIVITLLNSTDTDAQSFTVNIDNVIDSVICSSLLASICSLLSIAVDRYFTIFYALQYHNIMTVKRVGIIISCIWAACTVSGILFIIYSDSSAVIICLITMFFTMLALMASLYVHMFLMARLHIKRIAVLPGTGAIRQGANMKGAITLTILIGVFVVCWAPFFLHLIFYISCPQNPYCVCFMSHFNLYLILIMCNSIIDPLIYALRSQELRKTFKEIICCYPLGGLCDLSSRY
T2 sequence (P41968 whole entry): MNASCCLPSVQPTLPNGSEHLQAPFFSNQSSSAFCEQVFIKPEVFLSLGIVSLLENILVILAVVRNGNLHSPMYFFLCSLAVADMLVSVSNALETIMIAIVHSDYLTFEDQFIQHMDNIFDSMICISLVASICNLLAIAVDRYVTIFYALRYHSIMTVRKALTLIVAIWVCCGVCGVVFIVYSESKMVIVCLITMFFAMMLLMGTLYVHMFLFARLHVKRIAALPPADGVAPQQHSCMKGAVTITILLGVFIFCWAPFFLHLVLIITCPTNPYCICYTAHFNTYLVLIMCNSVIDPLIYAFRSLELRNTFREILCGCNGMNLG

activity of MC4R [1]	activity of MC3R [2]	reduce MC1R activation by ([3]; added 10 min prior stimulation with αMSH (EC80 set as 100%))	reduce MC1R activation to ([3]; Figure 2, αMSH (EC80) signal set as 100%, remaining activation)	activity of MC2R [4]	activity of MC5R [6]	Structure (SMILES)	inhibition at 25 µM ([5]; 25 µM in culture medium) [%]	inhibition at 10 µM ([5]; 10 µM in culture medium) [%]
not significantly affected	not significantly affected	51,3%	about 50%	not significantly affected	not significantly affected	COc1ccc(CSC(=N)N)cc1Br [Compound (III)]	-53.4	–
–	–	–	–	–	–	CC(=O)N1CCN(c2ccc(OCC3COC(Cn4ccnc4)(c4ccc(Cl)cc4Cl)O3)cc2)CC1 (centres unmarked) [Ketoconazol, reference compound]	–	-70.9
